Data published in article PMC4516916, “Development of Plate Reader and On-Line Microfluidic Screening to Identify Ligands of the 5-Hydroxytryptamine Binding Protein in Venoms” (Toxins, 2015).
Counter-ions that a name gives are not always drawn.

How the values were obtained:
[1] = target: T1, A1B2D1R 5HTBP mutant (Aplysia californica, UniProt Q8WSF8); experiment: Radioligand binding assay with [3H]-granisetron (SPA)
Protocol: The competitive radioligand-binding assay was performed as described by Kesters et al. 2013 [10]. His-tagged A1B2D1R 5HTBP was diluted in buffer (10 mM HEPES/0.05% Tween) to obtain 50 ng binding protein per well. […] The concentration of the radioligand [3H]-granisetron (Perkin-Elmer, Life Science, Groningen, The Netherlands, specific activity ~85 Ci/mmol) was 1.99 nM. After addition of PVT Copper His-Tag SPA beads (final concentration 2 mg/mL), the final well volume was 100 µL. The plates (white Optiplates, Perkin-Elmer Life Science, Groningen, The Netherlands) were incubated at room temperature under continuous shaking while protected from light for 1.5 h. The SPA beads were then allowed to settle for 3 h in the absence of light before counting in a Wallac 1450 MicroBeta (Perkin-Elmer Life Science, Groningen, The Netherlands). All radioligand binding data were fit by a non-linear, least squares curve analysis procedure using Graphpad Prism (version 5, GraphPad Software).

[2] = target: T1, A1B2D1R 5HTBP mutant; experiment: Fluorescence enhancement microplate reader assay (DAHBA tracer); format: binding
Protocol: Next, specific and non-specific binding was determined by measuring a tracer saturation curve with and without a displacing ligand. In this experiment, the binding protein concentration was 50 nM while 100 µM granisetron was used as displacing ligand for measurement of the non-specific binding curve. […] The non-specific binding, the total binding curve and the resulting specific binding curve is shown (Figure 2C).
Fourteen 5-HT3R ligands, also binding to the 5HTBP [10], were selected for this experiment. The measured Ki values for both the fluorescence enhancement plate reader assay as well as those measured with the radioligand binding assay are listed (Supplementary Information Table S1).
The buffer used for development of the 5HTBP fluorescence enhancement assay consisted of 1 mM KH2PO4, 3 mM Na2HPO4, […], 20 mM trizma base/HCl at pH 7.5 with addition of 400 μg/mL ELISA BR [21]. The fluorescence enhancement was measured with a Victor3 Microplate reader from Perkin-Elmer. The excitation and emission wavelengths were set to 485 and 520 nm, respectively. Black-bottomed 96-well microplates were purchased from Greiner Bio-One (Alphen aan den Rijn, The Netherlands). The final assay volume was 100 µL per well. The 5HTBP was first mixed with the ligands, and then with the tracer ligand. The assay mixture was incubated for 5 min before the measurement. The pharmacological validation was performed by measurement of IC50 curves of twelve 5-HT3R ligands and comparing the results obtained with the results obtained from a radioligand binding assay (see below). The z’ factors for the determination of assay quality were calculated according to Zhang.

[3] = system: A1B2D1R 5HTBP; experiment: Fluorescence enhancement of anabaseine derivatives with 5HTBP (cuvette fluorometer); format: binding, Aplysia californica; conditions: fluorescence in presence of 5HTBP divided by fluorescence in absence of 5HTBP; A1B2D1R variant; excitation 488 nm
Protocol: (§1) We first evaluated three potentially suitable tracer ligands. […] Fluorescence enhancement factors are defined as fluorescence in presence of 5HTBP divided by fluorescence in absence of 5HTBP. […] DAHBA was therefore selected as the most suitable tracer ligand.
(§2) The fluorescence enhancement properties of three anabaseine derivatives (Supplementary Information Figure S3) bound to the orthosteric binding pocket of two different 5HTBP variants were measured using 1 cm wide glass cuvettes in a Perkin-Elmer LS50B fluorometer (Groningen, The Netherlands). The excitation spectra, λmax (nm), and ε (L·mol^−^1·cm^−^1) values of the anabaseine derivatives are described by Kool et al.. The emission spectra from 500–595 nm were recorded with 0.5 nm intervals with a fixed 488 nm excitation.

[4] = system: A1B2D1W 5HTBP; experiment: as above; format: binding, Aplysia californica; conditions: fluorescence in presence of 5HTBP divided by fluorescence in absence of 5HTBP; A1B2D1W variant; excitation 488 nm
Protocol: as §1, §2

[5] = Stability of tracer ligand in solution (MS analysis); format: physicochemical; conditions: deduced by MS analysis
From the text: as §1

[6] = [3H]-granisetron 1.99 nM; read-out: Ki RLB (A1B2D1R 5HTBP mutant)
[7] = plate reader assay, read-out: Ki fluorescence enhancement (A1B2D1R 5HTBP mutant)
[8] = read-out: Ki RLB (A1B2D1R 5HTBP mutant); [3H]-granisetron 1.99 nM
[9] = read-out: Ki fluorescence enhancement (A1B2D1R 5HTBP mutant), plate reader assay

T1 sequence (Q8WSF8 entry or part of it, change not shown): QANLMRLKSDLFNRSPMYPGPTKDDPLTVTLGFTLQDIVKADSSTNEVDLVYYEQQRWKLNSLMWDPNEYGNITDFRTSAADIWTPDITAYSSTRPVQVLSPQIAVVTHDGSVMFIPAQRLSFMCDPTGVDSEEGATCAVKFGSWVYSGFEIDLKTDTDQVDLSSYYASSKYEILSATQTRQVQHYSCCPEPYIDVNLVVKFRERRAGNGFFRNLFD

`Cn1cc(C(=O)C(=O)NC2CN3CCC2CC3)c2ccccc21` (stereo not drawn) [RS56812] gave a Ki [1, 6] of 1.6 ± 0.34 µM and a Ki [2, 7] of 3.57 ± 0.91 µM.
In the case of `CN(C)c1ccc(/C=C2\CCCN=C2c2cccnc2)cc1` [VUF10907, (E)-3-(3-(4-Dimethylaminobenzylidene)-3,4,5,6-tetrahydropyridin-2-yl)pyridine], the fluorescence enhancement factor [3] is reported as 3.8 and the fluorescence enhancement factor [4] is reported as 2.5.
Work on `c1ccc2nc(N3CCNCC3)ccc2c1` [quipazine] yielded a Ki [1, 8] of 53.8 ± 13.7 µM and a Ki [2, 9] of 73 ± 32.2 µM.
For `CN1CCc2cc(/C=C3\CCCN=C3c3cccnc3)ccc21` [VUF11234, (E)-1-methyl-5-((2-(pyridin-3-yl)-5,6-dihydropyridin-3(4H)-ylidene)methyl)indoline], the fluorescence enhancement factor [3] was 6.5, the fluorescence enhancement factor [4] was 3.7 and the degradation in solution [5] was “notable degradation in solution”.
`CCN(CC)c1ccc(/C=C2\CCCN=C2c2cccnc2)c(O)c1` [DAHBA, (E)-3-(3-(4-diethylamino-2-hydroxybenzylidene)-3,4,5,6-tetrahydropyridin-2-yl)pyridine] gave a fluorescence enhancement factor [3] of 4.7.
Compound `CN1CCN(c2nc3ccccc3nc2Cl)CC1` [VUF10166] has a Ki [1, 6] of 2.39 ± 0.58 µM and a Ki [2, 7] of 11.5 ± 3.58 µM.
Work on `CN1[C@@H]2CC[C@H]1C[C@@H](OC(=O)c1c[nH]c3ccccc13)C2` [tropisetron] yielded a Ki [1, 8] of 0.01 µM and a Ki [2, 9] of 0.04 µM.
`NCCc1c[nH]c2ccc(F)cc12` [5-fluorotryptamine HCL] showed a Ki [1, 8] of 101 ± 50.2 µM and a Ki [2, 9] of 110 ± 14 µM.
With `NC1CCN(c2cccc(Cl)n2)CC1` [SR57227] the Ki [1, 6] was 39.7 ± 15 µM and the Ki [2, 7] was 85 ± 7.62 µM.
For `O=C1c2cccc3c2[C@H](CCC3)CN1[C@@H]1CN2CCC1CC2` [palonosetron], the Ki [1, 8] was 0.51 ± 0.11 µM and the Ki [2, 9] was 2.2 ± 0.63 µM.
RS 16566 gave a Ki [1, 6] of 0.38 ± 0.09 µM and a Ki [2, 7] of 3 ± 0.02 µM.
In the case of `COc1cc(N)c(Cl)cc1C(=O)NC1CN2CCC1CC2` (stereo not drawn) [zacopride], the Ki [1, 8] is reported as 1.62 ± 0.57 µM and the Ki [2, 9] is reported as 4.05 ± 1.14 µM.
In the case of `CN1C2CCCC1CC(NC(=O)c1nn(C)c3ccccc13)C2` (stereo not drawn) [granisetron, Granisetron], the Ki [1, 8] is reported as 0.05 ± 0.01 µM and the Ki [2, 9] is reported as 0.24 ± 0.14 µM.
With `C=CCN1CCc2nc(N)sc2CC1` [B-HT920] the Ki [1, 6] was 0.93 ± 0.24 µM and the Ki [2, 7] was 3.85 ± 0.76 µM.
With `CN1CCN2c3ncccc3Cc3ccccc3C2C1` (stereo not drawn) [mirtazapine] the Ki [1, 8] was 9.29 ± 1.87 µM and the Ki [2, 9] was 12.8 ± 3.99 µM.
